Measured values as given in ChEMBL document CHEMBL5506046, “Discovery of LLC355 as an Autophagy-Tethering Compound for the Degradation of Discoidin Domain Receptor 1” (J Med Chem, 2024).
Calls of active or inactive are those of the source. No cut-off for these calls is given here.

Key:
[1] = target: LC3/Epithelial discoidin domain-containing receptor 1 (Homo sapiens, UniProt Q08345+Q9BXW4+Q9GZQ8+Q9H492); assay: Autophagosome tethering activity at DDR1 in human NCI-H23 cells assessed as protein degradation at 0.3 uM measured after 24 hrs by immunoblotting analysis relative to control; format: cell-based
NCI-H23 [2] = assay: Inhibition of cell invasion in human NCI-H23 cells at 1 uM incubated for 24 hrs by transwell assay; format: functional, cell-based
NCI-H23 [3] = assay: Inhibition of cell migration in human NCI-H23 cells at 1 uM incubated for 24 hrs by transwell assay; format: functional, cell-based
NCI-H23 [4] = assay: Inhibition of tumorigenicity in human NCI-H23 cells at 1 uM incubated for 10 days by colony formation assay; format: functional, cell-based; conditions: time 10.0 day

Row | Activity [1] | SMILES | also measured
1 | 13% | CCc1ccc(C(=O)Nc2cc(CN3CCN(CCCCCC(=O)NCCCN(C(=O)c4ccc(C)cc4)[C@@H](c4nc5cc(Cl)ccc5c(=O)n4Cc4ccccc4)C(C)C)CC3)cc(C(F)(F)F)c2)cc1C#Cc1cnc2ccnn2c1 | 
2 | 12% | CCc1ccc(C(=O)Nc2cc(CN3CCN(C(=O)CCCCCNC(=O)COc4c(Br)cc(/C=C5\C(=O)Nc6ccc(I)cc65)cc4Br)CC3)cc(C(F)(F)F)c2)cc1C#Cc1cnc2ccnn2c1 | 
3 | 0% | CCc1ccc(C(=O)Nc2cc(CN3CCN(C(=O)COCCNC(=O)COc4c(Br)cc(/C=C5\C(=O)Nc6ccc(I)cc65)cc4Br)CC3)cc(C(F)(F)F)c2)cc1C#Cc1cnc2ccnn2c1 | 
4 | 9% | CCc1ccc(C(=O)Nc2cc(CN3CCN(C(=O)COCCOCCNC(=O)COc4c(Br)cc(/C=C5\C(=O)Nc6ccc(I)cc65)cc4Br)CC3)cc(C(F)(F)F)c2)cc1C#Cc1cnc2ccnn2c1 | 
5 | 4% | CCc1ccc(C(=O)Nc2cc(CN3CCN(C(=O)COc4c(Br)cc(/C=C5\C(=O)Nc6ccc(I)cc65)cc4Br)CC3)cc(C(F)(F)F)c2)cc1C#Cc1cnc2ccnn2c1 | 

Continued, molecule first:

Row | SMILES | Activity [1] | also measured
6 | CCc1ccc(C(=O)Nc2cc(CN3CCN(CCOCCOCC(=O)NCCCN(C(=O)c4ccc(C)cc4)[C@@H](c4nc5cc(Cl)ccc5c(=O)n4Cc4ccccc4)C(C)C)CC3)cc(C(F)(F)F)c2)cc1C#Cc1cnc2ccnn2c1 | 0% | 
7 | CCc1ccc(C(=O)Nc2cc(CN3CCN(CCOCCOCCOCC(=O)NCCCN(C(=O)c4ccc(C)cc4)[C@@H](c4nc5cc(Cl)ccc5c(=O)n4Cc4ccccc4)C(C)C)CC3)cc(C(F)(F)F)c2)cc1C#Cc1cnc2ccnn2c1 | 0% | 
8 | CC#Cc1cc(C(=O)Nc2cc(CN3CCN(CCOCC(=O)NCCCN(C(=O)c4ccc(C)cc4)[C@@H](c4nc5cc(Cl)ccc5c(=O)n4Cc4ccccc4)C(C)C)CC3)cc(C(F)(F)F)c2)ccc1CC |  | inhibition (NCI-H23 [2]): inactive; inhibition (NCI-H23 [3]): inactive; inhibition (NCI-H23 [4]): inactive
9 | CCc1ccc(C(=O)Nc2cc(CN3CCN(CCCCCCCC(=O)NCCCN(C(=O)c4ccc(C)cc4)[C@@H](c4nc5cc(Cl)ccc5c(=O)n4Cc4ccccc4)C(C)C)CC3)cc(C(F)(F)F)c2)cc1C#Cc1cnc2ccnn2c1 | 6% | 
